Assay type in all cases: cell-based
Test [1] concerns the target T1, PPARα (Homo sapiens, UniProt Q07869).
T1 construct: expressed in transfected cells; host or cells: COS-7
T1 sequence (Q07869 239-466 limits assumed): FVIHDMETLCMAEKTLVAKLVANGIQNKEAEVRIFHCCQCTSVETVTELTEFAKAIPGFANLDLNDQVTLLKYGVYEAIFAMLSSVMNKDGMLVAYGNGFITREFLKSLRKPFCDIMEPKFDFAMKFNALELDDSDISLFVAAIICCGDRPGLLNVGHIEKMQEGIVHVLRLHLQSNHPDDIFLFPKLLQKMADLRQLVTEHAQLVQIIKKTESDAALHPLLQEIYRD
The test is described as follows: GAL4 hybrid reporter gene method, PPARα agonistic activity. The following applies: Cos-7 cells, Gal4-PPARα (LBD); GW7647 10 nM = 100%; 16 h. On the technique in general: In a reporter assay the amount or activity of a reporter protein is the signal.
Description: (§1) Cos-7 cells (African green monkey kidney fibroblasts, commonly used tool cells) were cultured in a 10-cm cell culture dish with a DMEM complete medium containing 10% fetal bovine serum. When growing at a density of about 70%, the cells were ready for transfection. […] The working solution described above was then combined with 8 mL of the DMEM complete medium, and the mixture was added to the cell culture dish for cell transfection. After 4 h of transfection, the cells were digested, resuspended, and seeded into a 96-well plate at 25,000 cells/well. […] 10 μL of a reporter gene detection solution (purchased from Shanghai Beyotime Biological Tech. Co., Ltd.) was added. After the resulting solution was mixed and reacted, biological fluorescence was detected by using a multifunctional microplate reader, and corresponding half maximal effective concentration (EC50) values were calculated according to the detection values. […] Transfection working solutions for different nuclear receptors were prepared and added into COS-7 cells. The preparation method for the transfection working solution was as follows: the constructed pBIND-Gal4-PPARα (LBD) (or pBIND-Gal4-PPARδ (LBD) plasmid or pBIND-Gal4-PPARγ (LBD) plasmid or pBIND-Gal4-RARα (LBD) plasmid or pBIND-Gal4-RARγ (LBD) plasmid or pBIND-Gal4-RARβ (LBD) plasmid or pBIND-Gal4-RORα (LBD) plasmid or pBIND-Gal4-RORγ (LBD) plasmid or pBIND-Gal4-RORβ (LBD) plasmid or pBIND-Gal4-FXR (LBD) plasmid or pBIND-Gal4-RXRα.

Test [2] deals with T2, PPARδ (Homo sapiens, UniProt Q03181).
T2 construct: expressed in transfected cells; host or cells: COS-7
T2 sequence (Q03181 211-439 limits assumed): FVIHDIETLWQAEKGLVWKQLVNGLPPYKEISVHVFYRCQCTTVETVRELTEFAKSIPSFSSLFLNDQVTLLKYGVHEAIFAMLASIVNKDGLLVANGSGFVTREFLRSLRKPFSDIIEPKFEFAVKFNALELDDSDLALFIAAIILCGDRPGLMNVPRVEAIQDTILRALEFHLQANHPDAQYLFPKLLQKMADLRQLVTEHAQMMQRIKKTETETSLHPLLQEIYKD
As to the kind of experiment: GAL4 hybrid reporter gene method, PPARδ agonistic activity.
Description: as §1

The target of test [3] is T3, PPARγ (Homo sapiens, UniProt P37231).
T3 construct: expressed in transfected cells; host or cells: COS-7
T3 sequence (P37231 238-503 limits assumed): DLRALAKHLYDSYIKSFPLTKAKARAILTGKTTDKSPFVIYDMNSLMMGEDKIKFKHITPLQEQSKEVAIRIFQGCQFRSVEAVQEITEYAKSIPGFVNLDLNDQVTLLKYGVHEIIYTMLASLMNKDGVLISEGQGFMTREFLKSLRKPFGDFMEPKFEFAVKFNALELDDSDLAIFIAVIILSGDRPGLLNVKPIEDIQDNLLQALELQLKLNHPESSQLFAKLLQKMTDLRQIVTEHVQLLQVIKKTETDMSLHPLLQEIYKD
As to the kind of experiment: GAL4 hybrid reporter gene method, PPARγ agonistic activity.
Description: as §1

[4] abbreviates: Cos-7 cells, Gal4-PPARδ (LBD), GW501516 10 nM = 100%, 16 h.
Where [5] appears, read: Cos-7 cells, Gal4-PPARγ (LBD), Rosiglitazone 1 μM = 100%, 16 h.

The structures appear in SMILES notation. Where two headings read alike, the source gives them in different places.

`Cc1cc(CN2C(=O)CN(c3ccc(C(F)(F)F)c(Cl)c3)C2=O)cc(C)c1OC(C)(C)C(=O)O` [Compound 33, 2-(2,6-Dimethyl-4-((3-(3-chloro-4-(trifluoromethyl)phenyl)-2,5-dioxoimidazolin-1-yl)methyl)phenoxy)-2-methylpropionic Acid]: in test [1], the EC50 was 1 nM and the “PPARα EC50 (nM)” value is “low nanomolar levels”. Further, in test [2] (setting [4]), the EC50 came out at 1.7 nM and the “PPARδ EC50 (nM)” value is reported as “low nanomolar levels”. The same compound yielded an EC50 in test [3] (setting [5]) of 657 nM.
On to `Cc1cc(CN2C(=O)CN(c3ccc(OC(F)(F)F)cc3)C2=O)cc(C)c1OC(C)(C)C(=O)O` [Compound 3, 2-(4-((2,5-Dioxo-3-(4-(trifluoromethoxy)phenyl)imidazolidin-1-yl)methyl)-2,6-dimethylphenoxy)-2-methylpropionic Acid], for which the EC50 was determined as 4.4 nM in test [2] (setting [4]) and 4150 nM in test [3]. Also, in test [2] (setting [4]), the “PPARδ EC50 (nM)” value is on record as “low nanomolar levels”.
Regarding `CC(C)(Oc1ccc(CN2C(=O)CN(c3ccc(C(F)(F)F)cc3)C2=O)cc1OC(F)(F)F)C(=O)O` [Compound 55, 2-(4-((2,5-Dioxo-3-(4-(trifluoromethyl)phenyl)imidazolin-1-yl)methyl)-2-(trifluoromethoxy)phenoxy)-2-methylpropionic Acid], the EC50 in test [1] is 82.1 nM; in test [2], 24 nM; in test [3], 2960 nM.
Turning to `Cc1cc(CN2C(=O)CN(c3ccc(C4CC4)cc3)C2=O)cc(C)c1OC(C)(C)C(=O)O` [Compound 101], the EC50 in test [1] is 1 nM; in test [2], 10.2 nM; in test [3] it was 313 nM. Besides, the “PPARα EC50 (nM)” value in test [1] is on record as “low nanomolar levels”. For the same compound, in test [2] (setting [4]), the “PPARδ EC50 (nM)” value is recorded as “low nanomolar levels”.
With `Cc1cc(CN2CC(=O)N(c3ccc(C(F)(F)F)cc3)C2=O)cc(C)c1OC(C)(C)C(=O)O` [Compound 81, 2-(4-((2,4-Dioxo-3-(4-(trifluoromethyl)phenyl)imidazolidin-1-yl)methyl)-2,6-dimethylphenoxy)-2-methylpropionic Acid], the values for the EC50 in test [1], in test [2] (setting [4]) and in test [3] were 165 nM, 82.1 nM and greater than 5000 nM, respectively.
Take `Cc1cc(CN2C(=O)CN(c3ccc(Br)cc3)C2=O)cc(C)c1OC(C)(C)C(=O)O` [Compound 61, 2-(4-((3-(4-Bromophenyl)-2,5-dioxoimidazolin-1-yl)methyl)-2,6-dimethylphenoxy)-2-methylpropionic Acid]: in test [1], the EC50 was found to be 3.9 nM and the “PPARα EC50 (nM)” value is “low nanomolar levels”. The compound also gave an EC50 in test [3] (setting [5]) of 1200 nM.
Turning to `Cc1cc(CN2C(=O)CN(c3ccc(C(F)(F)F)cc3)C2=O)cc(Cl)c1OC(C)(C)C(=O)O` [Compound 13, 2-(2-Chloro-4-((2,5-dioxo-3-(4-(trifluoromethyl)phenyl)imidazolidin-1-yl)methyl)-6-methylphenoxy)-2-methylpropionic Acid], the concentration for a half-maximal effect (EC50) was 1.2 nM in test [1], 10.8 nM in test [2] and 1290 nM in test [3].
As to `CCc1ccc(N2CC(=O)N(Cc3cc(C)c(OC(C)(C)C(=O)O)c(C)c3)C2=O)cc1` [Compound 75, 2-(4-(3-(4-Ethylphenyl)-2,5-dioxoimidazolidin-1-yl)methyl)-2,6-dimethylphenoxy-2-methylpropionic Acid], in test [1], it took 1 nM to reach a half-maximal effect (EC50) and the “PPARα EC50 (nM)” value is given as “low nanomolar levels”. Also, in test [2] (setting [4]), it took 6.3 nM to reach a half-maximal effect (EC50) and the “PPARδ EC50 (nM)” value was “low nanomolar levels”.
In the case of `Cc1ccc(N2CC(=O)N(Cc3cc(C)c(OC(C)(C)C(=O)O)c(C)c3)C2=O)cc1` [Compound 23, 2-(4-((2,5-Dioxo-3-(4-methylphenyl)imidazolin-1-yl)methyl)-2,6-dimethylphenoxy)-2-methylpropionic Acid], the EC50 in test [1] came out at 26.5 nM; in test [2] (setting [4]), 25.7 nM; in test [3] (setting [5]), 629 nM.
In the case of `CC(C)(Oc1c(F)cc(CN2C(=O)CN(c3ccc(C(F)(F)F)cc3)C2=O)cc1F)C(=O)O` [Compound 21, 2-(4-((2,5-Dioxo-3-(4-(trifluoromethyl)phenyl)imidazolin-1-yl)methyl)-2,6-difluorophenoxy)-2-methylpropionic Acid], the results for the EC50 in test [1], in test [2] (setting [4]) and in test [3] were 42.9 nM, 101 nM and greater than 5000 nM, respectively.
`Cc1cc(CN2C(=O)CN(c3ccccc3)C2=O)cc(C)c1OC(C)(C)C(=O)O` [Compound 35, 2-(4-((2,5-Dioxo-3-phenylimidazolin-1-yl)methyl)-2,6-dimethylphenoxy)-2-methylpropionic Acid]: the EC50 in test [1] amounted to 166 nM; in test [2] (setting [4]), 90.5 nM; in test [3] (setting [5]) it was 2100 nM.
On to `Cc1cc(CN2C(=O)CN(c3cccc(C(F)(F)F)c3)C2=O)cc(C)c1OC(C)(C)C(=O)O` [Compound 45, 2-(4-((2,5-Dioxo-3-(3-(trifluoromethyl)phenyl)imidazolin-1-yl)methyl)-2,6-dimethylphenoxy)-2-methylpropionic Acid], for which, in test [1], the EC50 amounted to 3.8 nM and the “PPARα EC50 (nM)” value is given as “low nanomolar levels”. In test [2] (setting [4]), the response was half-maximal at 5.9 nM (EC50) and the “PPARδ EC50 (nM)” value was “low nanomolar levels”. For the same compound, in test [3] (setting [5]), the EC50 is 996 nM.
On to `Cc1cc(CN2C(=O)CN(Cc3ccc(C(F)(F)F)cc3)C2=O)cc(C)c1OC(C)(C)C(=O)O` [Compound 93], for which the EC50 in test [3] (setting [5]) came to 1490 nM.
With `Cc1cc(CN2C(=O)CN(c3ccc(C(C)C)cc3)C2=O)cc(C)c1OC(C)(C)C(=O)O` [Compound 65, 2-(4-((3-(4-Isopropylphenyl)-2,5-dioxoimidazolin-1-yl)methyl)-2,6-dimethylphenoxy)-2-methylpropionic Acid], the figures for the EC50 in test [1] and in test [3] (setting [5]) were 0.8 nM and 971 nM, respectively.
In the case of `COc1ccc(N2CC(=O)N(Cc3cc(C)c(OC(C)(C)C(=O)O)c(C)c3)C2=O)cc1` [Compound 39, 2-(4-((3-(4-Methoxyphenyl)-2,5-dioxoimidazolin-1-yl)methyl)-2,6-dimethylphenoxy)-2-methylpropionic Acid], the EC50 is 18.8 nM in test [1], 36.1 nM in test [2] (setting [4]) and 3370 nM in test [3] (setting [5]).
Take `Cc1cc(CN2C(=O)CN(c3ccc(C(F)(F)F)c(F)c3)C2=O)cc(C)c1OC(C)(C)C(=O)O` [Compound 31, 2-(2,6-Dimethyl-4-((3-(3-fluoro-4-(trifluoromethyl)phenyl)-2,5-dioxoimidazolin-1-yl)methyl)phenoxy)-2-methylpropionic Acid]: the EC50 in test [1] is 2.1 nM; in test [2] (setting [4]), 0.8 nM.
Consider `CSc1ccc(N2CC(=O)N(Cc3cc(C)c(OC(C)(C)C(=O)O)c(C)c3)C2=O)cc1` [Compound 43], for which, in test [1], the “PPARα EC50 (nM)” value is “low nanomolar levels”. In test [2] (setting [4]), the “PPARδ EC50 (nM)” value is reported as “low nanomolar levels”.
In the case of `CC(C)(Oc1c(Cl)cc(CN2C(=O)CN(c3ccc(C(F)(F)F)cc3)C2=O)cc1Cl)C(=O)O` [Compound 17, 2-(2,6-Dichloro-4-((2,5-dioxo-3-(4-(trifluoromethyl)phenyl)imidazolidin-1-yl)methyl)phenoxy)-2-methylpropionic Acid], the EC50 in test [2] (setting [4]) came out at 24.8 nM.
Take `Cc1cc(CN2C(=O)N(c3ccc(OC(F)(F)F)cc3)C(C)(C)C2=O)cc(C)c1OC(C)(C)C(=O)O` [Compound 7]: the EC50 in test [1] is 668 nM; in test [2], 176 nM.
Take `Cc1cc(CN2C(=O)CN(c3ccc(Cl)cc3)C2=O)cc(C)c1OC(C)(C)C(=O)O` [Compound 27, 2-(4-((3-(4-Chlorophenyl)-2,5-dioxoimidazolin-1-yl)methyl)-2,6-dimethylphenoxy)-2-methylpropionic Acid]: the EC50 in test [1] turned out to be 17 nM; in test [3] (setting [5]) it was 1420 nM.
In the case of `CC(C)(Oc1c(Br)cc(CN2C(=O)CN(c3ccc(C(F)(F)F)cc3)C2=O)cc1Br)C(=O)O` [Compound 19, 2-(2,6-Dibromo-4-((2,5-dioxo-3-(4-(trifluoromethyl)phenyl)imidazolidin-1-yl)methyl)phenoxy)-2-methylpropionic Acid], the half-maximal effective concentration (EC50) is 2.2 nM in test [1] and 23.6 nM in test [2] (setting [4]).
Taken in the same sequence, the figures for `Cc1cc(CN2C(=O)N(c3ccc(C(F)(F)F)cc3)C(C)(C)C2=O)cc(C)c1OC(C)(C)C(=O)O` [Compound 5, 2-(4-((4,4-Dimethyl-2,5-dioxo-3-(4-(trifluoromethyl)phenyl)imidazolin-1-yl)methyl)-2,6-dimethylphenoxy)-2-methylpropionic Acid] were 252 nM and 60 nM.
For the compound `Cc1cc(CN2C(=O)CN(c3ccc(C(F)(F)F)cc3)C2=O)cc(C)c1OC(C)C(=O)O` (stereo not shown) [Compound 63, 2-(4-((2,5-Dioxo-3-(4-(trifluoromethyl)phenyl)imidazolin-1-yl)methyl)-2,6-dimethylphenoxy)propionic Acid], the EC50 came out at 25.1 nM in test [1] and 4 nM in test [2].

Broadly, the EC50 is the midpoint of the concentration-response curve. The low end stands for a more potent agent, the high end for a less potent agent.

The record behind these values is patent US20250136555A1 (HARBIN MEDISAN PHARMACEUTICAL CO., LTD., priority 2022, published 2025).
